Assay results taken from patent publication US20250120927A1, “CNDP2 MODULATORS AND METHODS FOR THEIR USE” (Metabolon Inc., priority 2023, published 2025).

target: CNDP2 (Homo sapiens (Human), UniProt Q96KP4); test: CNDP2 enzyme inhibition assay (Met-His hydrolysis, free histidine by o-phthaldialdehyde fluorescence), dose-response; format: biochemical; settings: 50 nM purified CNDP2 (Sino Biological), 1 mM Met-His substrate, 30 minutes at 37° C.; TABLE 1
Experimental: To identify optimal conditions for identifying novel inhibitors of CNDP2, enzyme assays were performed with varied sources of purified enzyme, concentrations of enzyme, peptide substrates, concentrations of peptide substrates and metal cofactors. […] The reaction mixture was incubated for 30 minutes at 37° C. before it was quenched with an equal volume of 1% TCA. Free histidine was quantified after derivatization with a fluorophore (o-phthaldialdehyde from Sigma-Aldrich, excitation 340 nm, emission 460 nm). The reaction was conducted in an automation-friendly format to meet future screening throughput demands. A histidine titration standard curve was also included to enable conversion of fluorescence signal to molar concentration of histidine released by the hydrolysis reaction and to ensure the linearity of the fluorescence signal vs. free histidine.
Compounds of Formula (I) disclosed herein were screened for potency in inhibiting CNDP2 enzyme activity in a dose-response experiment. Bestatin was included with each batch of test molecules as a benchmark for assay quality control.

CNDP2, sequence (Q96KP4 whole entry): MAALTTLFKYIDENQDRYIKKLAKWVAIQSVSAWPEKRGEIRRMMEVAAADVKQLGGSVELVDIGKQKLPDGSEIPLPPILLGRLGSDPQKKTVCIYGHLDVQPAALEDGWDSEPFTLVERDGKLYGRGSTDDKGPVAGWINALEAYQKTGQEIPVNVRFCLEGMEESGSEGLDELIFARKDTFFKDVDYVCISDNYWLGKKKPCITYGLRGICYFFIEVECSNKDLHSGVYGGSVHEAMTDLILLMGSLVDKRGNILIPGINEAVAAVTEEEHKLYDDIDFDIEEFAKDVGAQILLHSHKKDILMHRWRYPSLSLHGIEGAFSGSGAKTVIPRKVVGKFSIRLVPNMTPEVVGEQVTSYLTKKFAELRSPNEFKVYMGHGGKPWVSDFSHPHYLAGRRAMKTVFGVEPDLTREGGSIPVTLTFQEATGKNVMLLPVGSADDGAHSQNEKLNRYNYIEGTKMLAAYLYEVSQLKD

Question: Which IC50 does the source give for N[C@H](Cc1ccccc1)[C@H](O)C(=O)NC(c1cccc(C(F)(F)F)c1)c1nnn[nH]1 (stereo partly shown) [Compound 43] here?
Answer: The IC50 was at least 1000 nM.

Question: Which IC50 does the source give for NC(=O)[C@@H](NC(=O)[C@@H](O)[C@H](N)Cc1ccccc1)c1cccc(OC(F)(F)F)c1 [Compound 44] here?
Answer: The IC50 was at least 1000 nM.

Question: With N[C@H](Cc1ccccc1)[C@H](O)C(=O)NC(C(=O)NO)c1cccc(C(F)(F)F)c1 (stereo partly shown) [Compound 45] as the compound, how does the IC50 read?
Answer: The IC50 was 100 to 1000 nM.

Question: N[C@H](Cc1ccc(Cl)cc1)[C@H](O)C(=O)N[C@H](C(=O)O)c1cccc(C(F)(F)F)c1 [Compound 49] was tested. Which IC50 did it give?
Answer: Its IC50 is under 100 nM.

Question: For N[C@H](Cc1ccccc1)[C@H](O)C(=O)N[C@H](C(=O)NO)c1cccc(OC(F)(F)F)c1 [Compound 52], which IC50 is on record?
Answer: Its IC50 is at least 1000 nM.

Question: With N[C@H](Cc1ccccc1)[C@H](O)C(=O)N[C@H](C(=O)NO)c1cccc(OC(F)(F)F)c1 [Compound 53] as the compound, how does the IC50 read?
Answer: The IC50 was 100 to 1000 nM.

Question: Which IC50 does the source give for CS(=O)(=O)NC(=O)C(NC(=O)[C@@H](O)[C@H](N)Cc1ccccc1)c1cccc(C(F)(F)F)c1 (stereo partly shown) [Compound 55] here?
Answer: Its IC50 is at least 1000 nM.

Question: For N[C@H](Cc1ccccc1)[C@H](O)C(=O)NC(c1cccc(C(F)(F)F)c1)c1n[nH]c(=O)o1 (stereo partly shown) [Compound 56], which IC50 is on record?
Answer: The IC50 was under 100 nM.

Question: With NC(Cc1cccc(OC(F)(F)F)c1)C(O)C(=O)N[C@H](C(=O)O)c1cccc(OC(F)(F)F)c1 (stereo partly shown) [Compound 57] as the compound, how does the IC50 read?
Answer: Its IC50 is at least 1000 nM.

Question: How did the IC50 turn out when N[C@H](Cc1ccccc1OC(F)(F)F)[C@H](O)C(=O)N[C@H](C(=O)O)c1cccc(OC(F)(F)F)c1 [Compound 61] was run?
Answer: Its IC50 is 100 to 1000 nM.

same assay, conditions: 50 nM purified CNDP2 (Sino Biological), 1 mM Met-His substrate, 30 minutes at 37° C.; TABLE 2

Question: For N[C@H](Cc1ccccc1)[C@H](O)C(=O)NC(c1cccc(C(F)(F)F)c1)C(F)(F)C(=O)O (stereo partly shown) [Compound 64], which IC50 is on record?
Answer: The IC50 was at least 1000 nM.

Question: With N[C@H](Cc1ccccc1)[C@H](O)C(=O)NC(C(=O)O)c1cccc(OC(F)F)c1 (stereo partly shown) [Compound 65] as the compound, how does the IC50 read?
Answer: The IC50 was under 100 nM.

Question: With N[C@H](Cc1ccccc1)[C@H](O)C(=O)NC(C(=O)O)c1cc(C(F)(F)F)cc(C(F)(F)F)c1 (stereo partly shown) [Compound 66] as the compound, how does the IC50 read?
Answer: Its IC50 is at least 1000 nM.

Question: With N[C@H](Cc1ccccc1)[C@H](O)C(=O)NC(C(=O)O)c1cc(C(F)(F)F)ccc1F (stereo partly shown) [Compound 67] as the compound, how does the IC50 read?
Answer: Its IC50 is at least 1000 nM.

Question: For N[C@H](Cc1ccccc1)[C@H](O)C(=O)NC(C(=O)O)c1cc(F)cc(C(F)(F)F)c1 (stereo partly shown) [Compound 68], which IC50 is on record?
Answer: Its IC50 is under 100 nM.

Question: Which IC50 does the source give for N[C@H](Cc1ccccc1)[C@H](O)C(=O)NC(C(=O)O)c1ccc(F)c(C(F)(F)F)c1 (stereo partly shown) [Compound 69] here?
Answer: Its IC50 is under 100 nM.

Question: With N[C@H](Cc1ccccc1)[C@H](O)C(=O)NC(c1cccc(C(F)(F)F)c1)c1noc(=O)[nH]1 (stereo partly shown) [Compound 71] as the compound, how does the IC50 read?
Answer: The IC50 was 100 to 1000 nM.

Question: With N[C@H](Cc1ccccc1)[C@H](O)C(=O)NC(CN1CCC(F)(F)CC1)C(=O)O (stereo partly shown) [Compound 72] as the compound, how does the IC50 read?
Answer: The IC50 was at least 1000 nM.

Question: Which IC50 does the source give for N[C@H](Cc1ccccc1)[C@H](O)C(=O)N[C@@H](CN1CCC(C(F)(F)F)CC1)C(=O)O [Compound 73] here?
Answer: The IC50 was at least 1000 nM.

Question: N[C@H](Cc1ccccc1)[C@H](O)C(=O)N[C@H](c1cccc(OC(F)(F)F)c1)c1n[nH]c(=O)o1 [Compound 74] was tested. Which IC50 did it give?
Answer: Its IC50 is at least 1000 nM.

Question: For N[C@H](Cc1ccccc1)[C@H](O)C(=O)N[C@@H](c1cccc(OC(F)(F)F)c1)c1n[nH]c(=O)o1 [Compound 75], which IC50 is on record?
Answer: Its IC50 is at least 1000 nM.

Question: For N[C@H](Cc1ccccc1)[C@H](O)C(=O)N[C@@H](C(=O)O)c1cc(C(F)(F)F)ccc1C(F)(F)F [Compound 80], which IC50 is on record?
Answer: Its IC50 is at least 1000 nM.

Question: For N[C@H](Cc1ccccc1)[C@H](O)C(=O)N[C@H](C(=O)O)c1cc(C(F)(F)F)ccc1C(F)(F)F [Compound 81], which IC50 is on record?
Answer: The IC50 was at least 1000 nM.

Question: For N[C@H](Cc1ccccc1)[C@H](O)C(=O)N[C@@H](CN1CCCC(F)(F)C1)C(=O)O [Compound 82], which IC50 is on record?
Answer: The IC50 was at least 1000 nM.

Question: With N[C@H](Cc1ccccc1)[C@H](O)C(=O)N[C@@H](CN1CCC(F)(F)C1)C(=O)O [Compound 83] as the compound, how does the IC50 read?
Answer: Its IC50 is at least 1000 nM.

Question: C[C@](NC(=O)[C@@H](O)[C@H](N)Cc1ccccc1)(C(=O)O)c1cccc(C(F)(F)F)c1 [Compound 84, (R)-2-((2S,3R)-3-amino-2-hydroxy-4-phenylbutanamido)-2-(3-(trifluoromethyl)phenyl)propanoic acid] was tested. Which IC50 did it give?
Answer: Its IC50 is at least 1000 nM.

Question: For C[C@@](NC(=O)[C@@H](O)[C@H](N)Cc1ccccc1)(C(=O)O)c1cccc(C(F)(F)F)c1 [Compound 85, (S)-2-((2S,3R)-3-amino-2-hydroxy-4-phenylbutanamido)-2-(3-(trifluoromethyl)phenyl)propanoic acid], which IC50 is on record?
Answer: Its IC50 is at least 1000 nM.

Question: How did the IC50 turn out when N[C@H](Cc1ccccc1)[C@H](O)C(=O)N[C@@H](C(=O)O)c1cccc(C(F)(F)F)c1Cl [Compound 86, (R)-2-((2S,3R)-3-amino-2-hydroxy-4-phenylbutanamido)-2-(2-chloro-3-(trifluoromethyl)phenyl)acetic acid] was run?
Answer: The IC50 was at least 1000 nM.

Question: With N[C@H](Cc1ccccc1)[C@H](O)C(=O)N[C@H](C(=O)O)c1cccc(C(F)(F)F)c1Cl [Compound 87, (S)-2-((2S,3R)-3-amino-2-hydroxy-4-phenylbutanamido)-2-(2-chloro-3-(trifluoromethyl)phenyl)acetic acid] as the compound, how does the IC50 read?
Answer: Its IC50 is 100 to 1000 nM.

Question: C[C@@](NC(=O)[C@@H](O)[C@H](N)Cc1ccccc1)(C(=O)O)c1cccc(OC(F)(F)F)c1 [Compound 88, (S)-2-((2S,3R)-3-amino-2-hydroxy-4-phenylbutanamido)-2-(3-(trifluoromethoxy)phenyl)propanoic acid] was tested. Which IC50 did it give?
Answer: The IC50 was at least 1000 nM.

Question: With C[C@](NC(=O)[C@@H](O)[C@H](N)Cc1ccccc1)(C(=O)O)c1cccc(OC(F)(F)F)c1 [Compound 89, (R)-2-((2S,3R)-3-amino-2-hydroxy-4-phenylbutanamido)-2-(3-(trifluoromethoxy)phenyl)propanoic acid] as the compound, how does the IC50 read?
Answer: The IC50 was at least 1000 nM.

Question: How did the IC50 turn out when N[C@H](Cc1ccccc1)[C@H](O)C(=O)N[C@@H](C(=O)O)c1cccc(C(F)(F)F)c1F [Compound 90, (R)-2-((2S,3R)-3-amino-2-hydroxy-4-phenylbutanamido)-2-(2-fluoro-3-(trifluoromethyl)phenyl)acetic acid] was run?
Answer: The IC50 was under 100 nM.

Question: For N[C@H](Cc1ccccc1)[C@H](O)C(=O)N[C@H](C(=O)O)c1cccc(C(F)(F)F)c1F [Compound 91, (S)-2-((2S,3R)-3-amino-2-hydroxy-4-phenylbutanamido)-2-(2-fluoro-3-(trifluoromethyl)phenyl)acetic acid], which IC50 is on record?
Answer: The IC50 was 100 to 1000 nM.

Question: With N[C@H](Cc1ccccc1)[C@H](O)C(=O)N[C@@H](C(=O)O)c1cc(F)cc(C(F)(F)F)c1 [Compound 92, (R)-2-((2S,3R)-3-amino-2-hydroxy-4-phenylbutanamido)-2-(5-fluoro-3-(trifluoromethyl)phenyl)acetic acid] as the compound, how does the IC50 read?
Answer: The IC50 was under 100 nM.

Question: How did the IC50 turn out when N[C@H](Cc1ccccc1)[C@H](O)C(=O)N[C@H](C(=O)O)c1cc(F)cc(C(F)(F)F)c1 [Compound 93, (S)-2-((2S,3R)-3-amino-2-hydroxy-4-phenylbutanamido)-2-(5-fluoro-3-(trifluoromethyl)phenyl)acetic acid] was run?
Answer: The IC50 was at least 1000 nM.

Question: Which IC50 does the source give for N[C@H](Cc1ccccc1)[C@H](O)C(=O)N[C@@H](C(=O)O)c1ccc(F)c(C(F)(F)F)c1 [Compound 94, (R)-2-((2S,3R)-3-amino-2-hydroxy-4-phenylbutanamido)-2-(4-fluoro-3-(trifluoromethyl)phenyl)acetic acid] here?
Answer: The IC50 was under 100 nM.

Question: With N[C@H](Cc1ccccc1)[C@H](O)C(=O)N[C@H](C(=O)O)c1ccc(F)c(C(F)(F)F)c1 [Compound 95, (S)-2-((2S,3R)-3-amino-2-hydroxy-4-phenylbutanamido)-2-(4-fluoro-3-(trifluoromethyl)phenyl)acetic acid] as the compound, how does the IC50 read?
Answer: Its IC50 is at least 1000 nM.

Question: N[C@H](Cc1ccccc1)[C@H](O)C(=O)N[C@@H](C(=O)O)c1ccc(F)c(C(F)(F)F)c1F [Compound 96, (R)-2-((2S,3R)-3-amino-2-hydroxy-4-phenylbutanamido)-2-(2,4-difluoro-3-(trifluoromethyl)phenyl)acetic acid] was tested. Which IC50 did it give?
Answer: The IC50 was under 100 nM.

Question: N[C@H](Cc1ccccc1)[C@H](O)C(=O)N[C@H](C(=O)O)c1ccc(F)c(C(F)(F)F)c1F [Compound 97, (S)-2-((2S,3R)-3-amino-2-hydroxy-4-phenylbutanamido)-2-(2,4-difluoro-3-(trifluoromethyl)phenyl)acetic acid] was tested. Which IC50 did it give?
Answer: Its IC50 is 100 to 1000 nM.

Question: Which IC50 does the source give for N[C@H](Cc1ccccc1)[C@H](O)C(=O)N[C@@H](Cc1cc(F)c(OC(F)(F)F)c(F)c1)C(=O)O [Compound 98] here?
Answer: Its IC50 is 100 to 1000 nM.

Question: N[C@H](Cc1ccccc1)[C@H](O)C(=O)N[C@@H](Cc1ccc(F)c(OC(F)(F)F)c1)C(=O)O [Compound 99] was tested. Which IC50 did it give?
Answer: The IC50 was at least 1000 nM.

Question: For N[C@H](Cc1ccccc1)[C@H](O)C(=O)N[C@@H](Cc1ccc(C(F)(F)F)c(Cl)c1)C(=O)O [Compound 100], which IC50 is on record?
Answer: The IC50 was 100 to 1000 nM.

Question: For N[C@H](Cc1ccccc1)[C@H](O)C(=O)N[C@@H](CC1CCC(F)(F)CC1)c1n[nH]c(=O)o1 [Compound 101], which IC50 is on record?
Answer: The IC50 was at least 1000 nM.

Question: Which IC50 does the source give for N[C@H](Cc1ccccc1)[C@H](O)C(=O)N[C@@H](C(=O)O)c1cc(F)cc(OC(F)(F)F)c1 [Compound 102, (R)-2-((2S,3R)-3-amino-2-hydroxy-4-phenylbutanamido)-2-(3-fluoro-5-(trifluoromethoxy)phenyl)acetic acid] here?
Answer: The IC50 was at least 1000 nM.

Question: Which IC50 does the source give for N[C@H](Cc1ccccc1)[C@H](O)C(=O)N[C@H](C(=O)O)c1cc(F)cc(OC(F)(F)F)c1 [Compound 103, (S)-2-((2S,3R)-3-amino-2-hydroxy-4-phenylbutanamido)-2-(3-fluoro-5-(trifluoromethoxy)phenyl)acetic acid] here?
Answer: The IC50 was under 100 nM.

Question: With N[C@H](Cc1ccccc1)[C@H](O)C(=O)N[C@@H](C(=O)O)c1ccc(F)c(OC(F)(F)F)c1 [Compound 104, (R)-2-((2S,3R)-3-amino-2-hydroxy-4-phenylbutanamido)-2-(4-fluoro-3-(trifluoromethoxy)phenyl)acetic acid] as the compound, how does the IC50 read?
Answer: The IC50 was at least 1000 nM.
